Here are results for one compound from ChEMBL document CHEMBL5620430, “Design, synthesis and biological evaluation of indazole derivatives as selective covalent inhibitors of FGFR4 in wild-type and gatekeeper mutants” (Eur J Med Chem, 2023).

Activity calls are given as the source filed them. The rule behind the calls is not given here.

Series [1] in a line: Metabolic stability in liver microsomes (unknown origin) assessed as half life. Format: ADME, Microsome. In general terms: Microsomes from liver hold many membrane-bound enzymes, among them those of drug oxidation.
Series [2] in a line: Half life in Sprague-Dawley rat at 10 mg/kg, po by LC-MS/MS analysis. It counts as ADME, organism-based. To be noted: in vivo.
A short description of series [3]: AUC (0 to t) in Sprague-Dawley rat at 10 mg/kg, po by LC-MS/MS analysis. It counts as ADME, organism-based. As to conditions: in vivo.
The target in series [4] is Fibroblast growth factor receptor 4 (Homo sapiens, UniProt P22455). Briefly: Inhibition of FGFR4 in human Huh-7 cells assessed as inhibition of MEK phosphorylation incubated for 2 hrs followed by compound washout and measured upto 8 hrs by Western blot analysis. It counts as cell-based. In general terms: A western blot detects proteins with antibodies after separation by electrophoresis.

Series [5] concerns Huh-7. Briefly: Induction of cell cycle arrest in human Huh-7 cells assessed as accumulation of cells at G0/G1 phase at 1 to 2 uM measured after 48 hrs by propidium iodide staining based flow cytometry analysis. It counts as functional. To be noted: dose 1-2 µM. On the technique in general: Flow cytometry measures light scatter and fluorescence of single cells or particles in a stream.

Series [6] deals with Huh-7. Briefly: Antitumor activity against human Huh-7 cells xenografted in ip dosed NSG mouse assessed as decrease in tumor weight administered twice per day for 2 weeks. It counts as functional, organism-based. To be noted: dose 20-40 mg/kg.
The subject of series [7] is Huh-7. As to the kind of experiment: Antitumor activity against human Huh-7 cells xenografted in ip dosed NSG mouse assessed as decrease in Ki-67 expression administered twice per day for 2 weeks. To be noted: dose 20-40 mg/kg. It counts as functional, organism-based.
Series [8] can be described thus: Toxicity in NSG mouse assessed as effect on kidney at 20 to 40 mg/kg by H and E staining based analysis. To be noted: in vivo, dose 20-40 mg/kg. Format: organism-based.
Series [9] can be described thus: Toxicity in NSG mouse assessed as effect on ALT level at 20 to 40 mg/kg […]. Format: organism-based. As to conditions: in vivo, dose 20-40 mg/kg.
Series [10] in a line: Toxicity in NSG mouse assessed as effect on ALP level at 20 to 40 mg/kg […]. Format: organism-based. As to conditions: in vivo, dose 20-40 mg/kg.
Series [11] in a line: Toxicity in NSG mouse assessed as effect on ALB level at 20 to 40 mg/kg […]. Format: organism-based. To be noted: in vivo, dose 20-40 mg/kg.
Series [12] is described as follows: Toxicity in NSG mouse assessed as effect on UREA level at 20 to 40 mg/kg […]. It counts as organism-based. As to conditions: in vivo, dose 20-40 mg/kg.
For series [13], the target named is Fibroblast growth factor receptor 1 (Homo sapiens, UniProt P11362).
Description: Inhibition of FGFR1 (unknown origin)
The target in series [14] is Fibroblast growth factor receptor 2 (Homo sapiens, UniProt P21802).
Description: Inhibition of FGFR2 (unknown origin)
Series [15] concerns BaF3. Briefly: cells. To be noted: Mus musculus.
Description: Antiproliferative activity against mouse BaF3 cells harbouring ETV6-FGFR4-N535K mutant measured after 24 to 48 hrs by MTT assay

Sequence of Fibroblast growth factor receptor 2 (P21802 whole entry): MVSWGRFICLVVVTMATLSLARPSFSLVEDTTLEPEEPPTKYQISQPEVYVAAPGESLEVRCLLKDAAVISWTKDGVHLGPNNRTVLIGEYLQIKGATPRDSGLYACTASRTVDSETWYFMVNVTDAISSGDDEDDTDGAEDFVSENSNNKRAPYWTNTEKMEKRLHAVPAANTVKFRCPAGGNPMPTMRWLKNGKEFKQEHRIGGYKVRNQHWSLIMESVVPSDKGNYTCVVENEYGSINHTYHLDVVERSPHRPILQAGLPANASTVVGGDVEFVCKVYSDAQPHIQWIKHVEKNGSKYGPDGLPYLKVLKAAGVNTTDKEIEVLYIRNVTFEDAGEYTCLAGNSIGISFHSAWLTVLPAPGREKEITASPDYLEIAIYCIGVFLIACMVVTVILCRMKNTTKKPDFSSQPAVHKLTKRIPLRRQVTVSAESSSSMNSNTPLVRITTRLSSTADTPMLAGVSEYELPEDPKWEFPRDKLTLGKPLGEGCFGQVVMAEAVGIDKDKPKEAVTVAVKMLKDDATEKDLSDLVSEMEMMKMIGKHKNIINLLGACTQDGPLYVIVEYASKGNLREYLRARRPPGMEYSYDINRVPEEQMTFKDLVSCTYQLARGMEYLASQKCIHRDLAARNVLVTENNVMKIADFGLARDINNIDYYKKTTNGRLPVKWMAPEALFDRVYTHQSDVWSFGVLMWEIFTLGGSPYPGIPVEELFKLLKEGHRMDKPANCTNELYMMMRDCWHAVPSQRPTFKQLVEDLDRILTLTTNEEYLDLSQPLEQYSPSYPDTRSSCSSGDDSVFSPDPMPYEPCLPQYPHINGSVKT
Sequence of Fibroblast growth factor receptor 1 (P11362 whole entry): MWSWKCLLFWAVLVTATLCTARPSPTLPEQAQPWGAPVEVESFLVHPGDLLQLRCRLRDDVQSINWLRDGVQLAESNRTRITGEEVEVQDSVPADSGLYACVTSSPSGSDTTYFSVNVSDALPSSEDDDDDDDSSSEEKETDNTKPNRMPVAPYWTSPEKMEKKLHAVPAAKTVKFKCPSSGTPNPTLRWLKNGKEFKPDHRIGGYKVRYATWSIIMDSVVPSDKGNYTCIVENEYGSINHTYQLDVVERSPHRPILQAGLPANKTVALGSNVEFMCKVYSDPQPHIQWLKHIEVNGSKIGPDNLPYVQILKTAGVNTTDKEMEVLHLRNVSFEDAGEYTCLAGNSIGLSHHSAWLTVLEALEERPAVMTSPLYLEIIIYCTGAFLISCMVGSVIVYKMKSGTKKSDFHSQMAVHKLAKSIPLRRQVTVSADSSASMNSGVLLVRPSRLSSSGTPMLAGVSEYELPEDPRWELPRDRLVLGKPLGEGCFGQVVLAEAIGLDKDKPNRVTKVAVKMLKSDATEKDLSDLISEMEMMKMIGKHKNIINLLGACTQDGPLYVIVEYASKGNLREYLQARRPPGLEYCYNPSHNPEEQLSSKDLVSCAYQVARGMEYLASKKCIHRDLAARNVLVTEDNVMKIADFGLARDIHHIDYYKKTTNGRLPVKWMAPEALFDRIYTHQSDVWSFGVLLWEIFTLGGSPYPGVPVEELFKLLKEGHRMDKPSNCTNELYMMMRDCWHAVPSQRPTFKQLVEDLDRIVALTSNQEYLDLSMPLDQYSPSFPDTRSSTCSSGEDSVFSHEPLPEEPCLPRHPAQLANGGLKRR
Sequence of Fibroblast growth factor receptor 4 (P22455 22-802 limits assumed): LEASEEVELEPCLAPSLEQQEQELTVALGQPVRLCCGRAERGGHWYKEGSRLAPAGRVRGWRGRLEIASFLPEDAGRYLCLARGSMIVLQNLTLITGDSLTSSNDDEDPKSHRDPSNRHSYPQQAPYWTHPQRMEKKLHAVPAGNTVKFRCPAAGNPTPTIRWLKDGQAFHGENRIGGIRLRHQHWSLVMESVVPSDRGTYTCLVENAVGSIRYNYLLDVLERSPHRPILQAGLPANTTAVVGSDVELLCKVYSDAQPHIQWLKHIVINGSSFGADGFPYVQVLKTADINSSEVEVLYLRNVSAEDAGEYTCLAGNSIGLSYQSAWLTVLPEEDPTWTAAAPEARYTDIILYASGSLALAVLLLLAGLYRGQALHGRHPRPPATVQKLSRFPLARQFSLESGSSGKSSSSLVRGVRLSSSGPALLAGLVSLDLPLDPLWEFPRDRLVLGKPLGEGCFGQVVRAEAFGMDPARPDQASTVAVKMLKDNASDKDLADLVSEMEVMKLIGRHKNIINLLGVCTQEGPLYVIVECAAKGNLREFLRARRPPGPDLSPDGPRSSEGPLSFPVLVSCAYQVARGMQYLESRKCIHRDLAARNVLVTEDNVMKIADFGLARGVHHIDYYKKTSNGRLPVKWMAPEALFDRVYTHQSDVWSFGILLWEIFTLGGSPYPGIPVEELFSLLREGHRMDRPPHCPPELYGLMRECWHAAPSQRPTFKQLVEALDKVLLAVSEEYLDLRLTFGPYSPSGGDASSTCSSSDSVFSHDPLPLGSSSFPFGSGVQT

In the case of `C=CC(=O)Nc1cc2c(cc1-c1n[nH]c3ccc(O[C@H](C)c4c(Cl)cncc4Cl)cc13)CCN(C)C2`, the half-life (usually how long it takes for the measured level to halve) was 8.99 min in [1] and 2.59 h in series [2]. Also, the AUC(0-t) (in general, exposure summed from dosing to a finite time, without extrapolation to infinity) in series [3] is 13 ng·h/mL. Besides, the inhibition result in series [4] was “Active”. Also, in [5], the outcome was Active. In addition, the Activity result in [6] was “Dose-Dependent Effect”; in series [7], “Dose-Dependent Effect”; in [8], “Non-Toxic”; in series [9], “Non-Toxic”; in series [10], “Non-Toxic”; in series [11], “Non-Toxic”. In addition, the Activity entry in [12] is “Non-Toxic”. Moreover, the IC50 (usually the concentration needed to halve the response being measured) is more than 3 µM in series [13], more than 3000 µM in [14] and 0.172 µM in [15].
